Molecular target: T1, GPER1 (Mus musculus, UniProt Q8BMP4)
T1 construct: Purified C57/BL6 CD4^+ T cells were preincubated with the GPER1 antagonist G15; endogenous in cells; host or cells: purified primary CD4+ T cells from C57/BL6 mice
T1 sequence (Q8BMP4 1-375): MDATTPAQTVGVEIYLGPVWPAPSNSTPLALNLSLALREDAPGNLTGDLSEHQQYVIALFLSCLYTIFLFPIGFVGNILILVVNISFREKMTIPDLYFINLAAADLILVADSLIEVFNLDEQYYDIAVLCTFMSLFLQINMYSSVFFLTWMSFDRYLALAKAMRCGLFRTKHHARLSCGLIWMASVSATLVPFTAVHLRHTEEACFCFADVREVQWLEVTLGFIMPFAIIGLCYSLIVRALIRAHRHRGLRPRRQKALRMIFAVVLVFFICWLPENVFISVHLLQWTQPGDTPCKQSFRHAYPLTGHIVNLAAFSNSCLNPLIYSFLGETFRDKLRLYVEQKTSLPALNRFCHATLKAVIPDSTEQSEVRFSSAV
Experiment: GPER1 dependence: CD25/CD69 on CD4+ T cells with G15 or G1
Format: cell-based, C57/BL6 mice
Settings: for cell viability: at 6 hours
Method: FIGS. 6A and 6B show purified CD4^+ T cells that were pretreated with 2-50 μM 2ME2 and/or the GPER1 antagonist G15, and subsequently stimulated with anti-CD3/28 for 6 hours. Activation of CD4^+ T cells was assessed by CD25 and CD69 upregulation, measured by flow cytometry. US, unstimulated. Data is shown as mean±SD for triplicate determinations, and is representative of two separate experiments.
Purified C57/BL6 CD4^+ T cells were preincubated with the GPER1 antagonist G15 (100 nM, Tocris) and 2ME2 (0-50 μM), or the GPER1 agonist G1 (1-100 nM, Tocris) for 30 minutes, and activated with plate bound anti-CD3 plus soluble anti-CD28. 6 hours later, cells were harvested, stained with anti-CD4 and anti-CD25. CD25 expression was monitored on a HTS FACSCanto II (BD) and analyzed with FloJo (Treestar Inc).

[1] = G15 100 nM with 2ME2, anti-CD3/28, 6 hours

CD25 expression on activated T cells (G1 1-100 nM, 6 hours) | CD69 expression on activated T cells (G1 1-100 nM, 6 hours) | reversal of the inhibitory effect of 2ME2 on CD25 expression [1] | reversal of the inhibitory effect of 2ME2 on CD69 expression [1] | Compound | cell viability
no effect | no effect | – | – | CC(=O)c1ccc2c(c1)C1C=CCC1C(c1cc3c(cc1Br)OCO3)N2 (stereo not drawn) [G1] | Neither 2ME2, G1 nor G15 affected cell viability
– | – | failed to reverse | failed to reverse | Brc1cc2c(cc1[C@@H]1Nc3ccccc3[C@@H]3C=CC[C@@H]31)OCO2 [G15] | Neither 2ME2, G1 nor G15 affected cell viability

— US9132138B2, “Method for the treatment of multiple sclerosis” (CASI Pharmaceuticals, Inc., priority 2012, dated 2015)
